# Measured values published in the supplement of paper PMC10307832.
# Experiments:
# Test in all cases: relative viability (nuclei count vs DMSO), 5 days (fraction); higher = more cells survive
# CAP-232 = compound: C[C@H]([C@@H](C(=O)N)NC(=O)[C@@H]1CSSC[C@@H](C(=O)N[C@H](C(=O)N[C@@H](C(=O)N[C@H](C(=O)N1)CCCCN)CC2=CNC3=CC=CC=C32)CC4=CC=C(C=C4)O)NC(=O)[C@@H](CC5=CC=CC=C5)N)O [CAP-232]
# In short: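 Viability here means nuclei in treated wells divided by nuclei in vehicle wells, reported as the median across plates. Only plates with control CV below 25% and at least one doubling passed. Lung cancer cell lines in 1536-well plates were exposed to five √10-spaced library-drug doses for 5 days and counted from 4× Hoechst images in MetaXpress.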
# CAP-232 + Trametinib = compound: C[C@H]([C@@H](C(=O)N)NC(=O)[C@@H]1CSSC[C@@H](C(=O)N[C@H](C(=O)N[C@@H](C(=O)N[C@H](C(=O)N1)CCCCN)CC2=CNC3=CC=CC=C32)CC4=CC=C(C=C4)O)NC(=O)[C@@H](CC5=CC=CC=C5)N)O [CAP-232] + CC(=O)Nc1cccc(-n2c(=O)n(C3CC3)c(=O)c3c(Nc4ccc(I)cc4F)n(C)c(=O)c(C)c32)c1 [Trametinib] (partner 0.02 µM)
# In short: (§1)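 Lung cancer cell lines in 1536-well plates were dosed by pin tool the day after seeding, either with one drug alone or with a fixed anchor-drug dose plus five library-drug doses (not always all listed) in √10 steps. After 5 days, cells were fixed and their nuclei stained in one step (final 0.05% Triton X-100, 1% formaldehyde, 1 ug/ml Hoechst), then counted on 4× images. Relative viability is the nuclei count in treated wells divided by that in vehicle wells. Values are medians of duplicate plates.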
# CAP-232 + Palbociclib = compound: C[C@H]([C@@H](C(=O)N)NC(=O)[C@@H]1CSSC[C@@H](C(=O)N[C@H](C(=O)N[C@@H](C(=O)N[C@H](C(=O)N1)CCCCN)CC2=CNC3=CC=CC=C32)CC4=CC=C(C=C4)O)NC(=O)[C@@H](CC5=CC=CC=C5)N)O [CAP-232] + CC(=O)c1c(C)c2cnc(Nc3ccc(N4CCNCC4)cn3)nc2n(C2CCCC2)c1=O [Palbociclib] (partner 0.5 µM)
# In short: as §1
# CAP-232 + OSI-027 = compound: C[C@H]([C@@H](C(=O)N)NC(=O)[C@@H]1CSSC[C@@H](C(=O)N[C@H](C(=O)N[C@@H](C(=O)N[C@H](C(=O)N1)CCCCN)CC2=CNC3=CC=CC=C32)CC4=CC=C(C=C4)O)NC(=O)[C@@H](CC5=CC=CC=C5)N)O [CAP-232] + COc1cccc2cc(-c3nc([C@H]4CC[C@H](C(=O)O)CC4)n4ncnc(N)c34)[nH]c12 [OSI-027] (partner 0.5 µM)
# In short: as §1
# CAP-232 + Tozasertib = compound: C[C@H]([C@@H](C(=O)N)NC(=O)[C@@H]1CSSC[C@@H](C(=O)N[C@H](C(=O)N[C@@H](C(=O)N[C@H](C(=O)N1)CCCCN)CC2=CNC3=CC=CC=C32)CC4=CC=C(C=C4)O)NC(=O)[C@@H](CC5=CC=CC=C5)N)O [CAP-232] + Cc1cc(Nc2cc(N3CCN(C)CC3)nc(Sc3ccc(NC(=O)C4CC4)cc3)n2)n[nH]1 [Tozasertib] (partner 0.1 µM)
# In short: as §1
# CAP-232 + AZD7762 = compound: C[C@H]([C@@H](C(=O)N)NC(=O)[C@@H]1CSSC[C@@H](C(=O)N[C@H](C(=O)N[C@@H](C(=O)N[C@H](C(=O)N1)CCCCN)CC2=CNC3=CC=CC=C32)CC4=CC=C(C=C4)O)NC(=O)[C@@H](CC5=CC=CC=C5)N)O [CAP-232] + NC(=O)Nc1cc(-c2cccc(F)c2)sc1C(=O)N[C@H]1CCCNC1 [AZD7762] (partner 0.2 µM)
# In short: as §1
# CAP-232 + Pemetrexed = compound: C[C@H]([C@@H](C(=O)N)NC(=O)[C@@H]1CSSC[C@@H](C(=O)N[C@H](C(=O)N[C@@H](C(=O)N[C@H](C(=O)N1)CCCCN)CC2=CNC3=CC=CC=C32)CC4=CC=C(C=C4)O)NC(=O)[C@@H](CC5=CC=CC=C5)N)O [CAP-232] + Nc1nc2[nH]cc(CCc3ccc(C(=O)N[C@@H](CCC(=O)O)C(=O)O)cc3)c2c(=O)[nH]1 [Pemetrexed] (partner 0.2 µM)
# In short: as §1
# CAP-232 + Decitabine = compound: C[C@H]([C@@H](C(=O)N)NC(=O)[C@@H]1CSSC[C@@H](C(=O)N[C@H](C(=O)N[C@@H](C(=O)N[C@H](C(=O)N1)CCCCN)CC2=CNC3=CC=CC=C32)CC4=CC=C(C=C4)O)NC(=O)[C@@H](CC5=CC=CC=C5)N)O [CAP-232] + Nc1ncn([C@H]2C[C@H](O)[C@@H](CO)O2)c(=O)n1 [Decitabine] (partner 2 µM)
# In short: as §1
# CAP-232 + Vorinostat = compound: C[C@H]([C@@H](C(=O)N)NC(=O)[C@@H]1CSSC[C@@H](C(=O)N[C@H](C(=O)N[C@@H](C(=O)N[C@H](C(=O)N1)CCCCN)CC2=CNC3=CC=CC=C32)CC4=CC=C(C=C4)O)NC(=O)[C@@H](CC5=CC=CC=C5)N)O [CAP-232] + O=C(CCCCCCC(=O)Nc1ccccc1)NO [Vorinostat] (partner 1 µM)
# In short: as §1
# CAP-232 + Olaparib = compound: C[C@H]([C@@H](C(=O)N)NC(=O)[C@@H]1CSSC[C@@H](C(=O)N[C@H](C(=O)N[C@@H](C(=O)N[C@H](C(=O)N1)CCCCN)CC2=CNC3=CC=CC=C32)CC4=CC=C(C=C4)O)NC(=O)[C@@H](CC5=CC=CC=C5)N)O [CAP-232] + O=C(c1cc(Cc2n[nH]c(=O)c3ccccc23)ccc1F)N1CCN(C(=O)C2CC2)CC1 [Olaparib] (partner 8 µM)
# In short: as §1
cell line,measurement,setting,value
NCI-H1648,relative viability,CAP-232; 0.4 µM,0.984
same,relative viability,CAP-232; 1.265 µM,0.761
same,relative viability,CAP-232; 4 µM,0.914
same,relative viability,CAP-232; 12.65 µM,0.885
same,relative viability,CAP-232 + Trametinib; first compound 0.4 µM,0.358
same,relative viability,CAP-232 + Trametinib; first compound 4 µM,0.314
same,relative viability,CAP-232 + Trametinib; first compound 12.65 µM,0.472
same,relative viability,CAP-232 + Palbociclib; first compound 0.4 µM,0.27
same,relative viability,CAP-232 + Palbociclib; first compound 4 µM,0.293
same,relative viability,CAP-232 + Palbociclib; first compound 12.65 µM,0.252
same,relative viability,CAP-232 + OSI-027; first compound 0.4 µM,0.238
same,relative viability,CAP-232 + OSI-027; first compound 1.265 µM,0.241
same,relative viability,CAP-232 + OSI-027; first compound 4 µM,0.265
same,relative viability,CAP-232 + OSI-027; first compound 12.65 µM,0.216
same,relative viability,CAP-232 + Tozasertib; first compound 0.4 µM,0.35
same,relative viability,CAP-232 + Tozasertib; first compound 1.265 µM,0.594
same,relative viability,CAP-232 + Tozasertib; first compound 4 µM,0.441
same,relative viability,CAP-232 + Tozasertib; first compound 12.65 µM,0.4
same,relative viability,CAP-232 + AZD7762; first compound 0.4 µM,0.618
same,relative viability,CAP-232 + AZD7762; first compound 4 µM,0.77
same,relative viability,CAP-232 + AZD7762; first compound 12.65 µM,0.532
same,relative viability,CAP-232 + Pemetrexed; first compound 0.4 µM,1.05
same,relative viability,CAP-232 + Pemetrexed; first compound 4 µM,0.92
same,relative viability,CAP-232 + Pemetrexed; first compound 12.65 µM,0.776
same,relative viability,CAP-232 + Decitabine; first compound 0.4 µM,0.524
same,relative viability,CAP-232 + Decitabine; first compound 4 µM,0.565
same,relative viability,CAP-232 + Decitabine; first compound 12.65 µM,0.466
same,relative viability,CAP-232 + Vorinostat; first compound 0.4 µM,0.292
same,relative viability,CAP-232 + Vorinostat; first compound 4 µM,0.453
same,relative viability,CAP-232 + Vorinostat; first compound 12.65 µM,0.411
same,relative viability,CAP-232 + Olaparib; first compound 0.4 µM,0.698
same,relative viability,CAP-232 + Olaparib; first compound 4 µM,0.664
same,relative viability,CAP-232 + Olaparib; first compound 12.65 µM,0.644
